# Experimental data published in US20250367225A1 (priority 2022, published 2025).
# Assays:
# [1] = tested on: SARS-COV-2 Omicron BA.1 variant (B.1.1.529); set-up: species or system BALB/c mice; settings: mouse, in vivo
# [2] = tested on: SARS-COV-2 Delta variant (B.1.617.2); set-up: species or system Syrian hamsters; settings: hamster, in vivo
structure (smiles),measurement,setting,value
CCCCCCCCCCCCCC[C@@H](O)[C@@H](O)[C@H](CO[C@H]1O[C@H](CO)[C@H](O)[C@H](O)[C@H]1O)NC(=O)CCCCCCCCCCc1ccc(F)cc1 [7DW8-5],body weight,[1],significant weight gain
same,virus replication in lung tissues,[1],complete inhibition
same,viral load in lung tissues,[2],significantly decreased
same,viral load in nasal tissues,[2],significantly decreased
